Experimental data as given in patent publication US5061691A, “Enkephalin analogs” (Kabushiki Kaisha Vitamin Kenkyuso, priority 1987, dated 1991).
Like-named read-outs stand apart in the source and are kept apart here. Peptide text beside a SMILES is read from it.

Tests used:
guinea pig ileum (GPI) = guinea pig ileum (GPI) (Cavia porcellus, UniProt P97266); details: value from Shimohigashi et al., Peptide Chemistry 1985 p. 51 (1986); cited from earlier work
mouse vas deferens (MVD) [1] = target: T1, mouse vas deferens (MVD) (Mus musculus, UniProt P32300); details: cited from earlier work
μ and δ opiate receptors = details: Lutz et al., Eur. J. Pharmacol. 111, 257 (1985); cited from earlier work
mouse vas deferens (MVD) [2] = target: T1, mouse vas deferens (MVD); assay type: cell-based
[3] = i.c.v. or i.v. administration; cited from earlier work

T1 sequence (P32300 whole entry): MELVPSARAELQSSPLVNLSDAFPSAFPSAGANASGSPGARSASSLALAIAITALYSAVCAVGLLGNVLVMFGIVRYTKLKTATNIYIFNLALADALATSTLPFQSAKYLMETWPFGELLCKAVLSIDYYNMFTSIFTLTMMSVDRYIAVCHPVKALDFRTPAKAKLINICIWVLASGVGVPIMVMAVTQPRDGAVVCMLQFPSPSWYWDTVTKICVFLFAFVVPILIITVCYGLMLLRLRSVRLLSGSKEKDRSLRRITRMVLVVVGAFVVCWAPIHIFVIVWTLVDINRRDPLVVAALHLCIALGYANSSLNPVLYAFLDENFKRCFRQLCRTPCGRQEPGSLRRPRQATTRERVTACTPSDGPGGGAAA
Sequence of guinea pig ileum (GPI) (P97266 whole entry): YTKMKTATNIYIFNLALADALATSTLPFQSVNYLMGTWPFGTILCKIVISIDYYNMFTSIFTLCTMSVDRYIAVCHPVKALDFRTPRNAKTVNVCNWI

(H--Tyr--D--Ala--Gly--NH--CH2 --)2 [DTRE2]
IC50 (guinea pig ileum (GPI)): 440 nM
opiate activity and selectivity in bioassays (GPI and MVD assays) (mouse vas deferens (MVD) [1]; GPI and MVD bioassays, Shimohigashi et al. (1986)): morphine-like activities and greater selectivity for μ than for δ
Activity ratio MVD/GPI (mouse vas deferens (MVD) [1]; ratio of IC50, from Shimohigashi et al., Peptide Chemistry 1985 p. 51 (1986)): 6.1
IC50 (mouse vas deferens (MVD) [1]; value from Shimohigashi et al., Peptide Chemistry 1985 p. 51 (1986)): 2700 nM
selectivity for μ than for δ in receptor binding assay (μ and δ opiate receptors): about 400 fold

NC(=O)[C@@H]1CCCN1C(=O)[C@H](Cc1ccccc1)NC(=O)[C@@H]1CCCN1C(=O)[C@@H](N)Cc1ccc(O)cc1 [Morphiceptin, H--Tyr--Pro--Phe--Pro--NH2] (H-YPFP-NH2)
Activity ratio MVD/GPI (mouse vas deferens (MVD) [2]): 5.7

β -Endorphin: consists of 31 amino acid residues and is a fragment of β -lipotropin (YGGFMTSEKSQTPLVTLFKNAIIKNAYKKGE; Beta-endorphin; UniProt P01189 237-267, looked up)
analgesic activity [3]: marked and long-lived analgesic activity
